Experimental findings from US20160090351A1, “INHIBITORS OF DEUBIQUITINATING PROTEASES” (BRANDEIS UNIVERSITY, priority 2013, published 2016) are described below.

Assay [1] deals with USP9x, USP19, USP7/8, USP28/15. Nature of the assay: HA-Ub-VS activity profiling in cell lysates, USPs. The assay is classed as biochemical, human.
Assay [2] has as its system desumoylation. Nature of the assay: stabilization of SUMOylated proteins in lysates from HA-SUMO transfected HEK 293T cells. The assay is classed as biochemical, human. Conditions: G5 5 μM, C4 300 μM. As to the method:
Untransfected HEK 293T cell lysates were treated with the vehicle alone (DMSO at 1%) or compound and incubated at 37° C. for 2 h. Samples were analyzed by SDS-PAGE and immunoblotting with antibody recognizing K48-linked ubiquitin. D=DMSO; G5=G5 isopeptidase inhibitor 1. A-D show titrations of different compounds (see FIG. 29B for structures). E-H Lysates were prepared from HEK 293T cells expressing HA-SUMO and treated with vehicle alone (DMSO, 1%) or compound. Samples were incubated for the appropriate time and analyzed by SDS-PAGE and immunoblotting with anti-HA antibody. Representative experiments are shown. E. Vehicle control. F. G5, 5 μM; G. C4, 300 μM. H. Quantification of blots as in E-G, N=2 average and range. I-J. Lysates were prepared from HEK 293T cells expressing HA-Ub and treated with either vehicle alone (1% DMSO) or compound at 37° C. for 3 h. Samples were analyzed by SDS-PAGE and immunoblotting with anti-HA antibody. I. A representative experiment. J. Quantitation of experiments in I (N=2 average and range shown). […]
Similar effects were observed when the endogenous K48-linked ubiquitin pool was monitored in lysates prepared from wild-type HEK 293T cells (FIG. 37A-D). Unfortunately, K63-linked ubiquitin could not be detected in these lysates. The ability of C4 to stabilize SUMOylated proteins in lysates from HA-SUMO transfected HEK 293T cells was also assessed.

The test system of assay [3] is SMAD4. Kind of assay: SMAD4 monoubiquitination in K562 cells by western blot. The assay is classed as cell-based, human. As to the method:
FIG. 34 depicts data showing that diphenylcarbonates cause the accumulation of HMW-Ub and reduce the levels of Bcr-Abl in K562 cells. A. K562 cells were treated with diphenyl carbonates (50 μM) for 2 h and then assayed for the accumulation of K48-linked Ub. B. As in A, but Bcr-Abl was measured by immunoblotting with anti-Abl antibodies. C. K562 cells were treated with C17 (50 μM) in the presence and absence of bortezomib (6 μM) for 4 hours and Bcr-Abl was measured by immunblotting with anti-Abl antibodies. D. Quantitation of blot in C. Significance: DMSO relative to C17 and bortezomib p=0.002; DMSO relative to C17, p=0.03. E. K562 cells were treated with C15 for 4 hours then analyzed for SMAD4 monoubiquitination by western blot. F. Quantitation of blots in A. (N=3). See also FIG. 40.
(§1) Transfected cells were harvested 1.5 days post transfection. […] Typically clarified lysate was analyzed.

The subject of assay [4] is Cos-1 cells. Kind of assay: accumulation of K48- and K63-linked HMW-Ub in Cos-1 cells. The assay is classed as cell-based, monkey. As to the method:
A. Cos-1 cells were treated with C15 dosing every 2 h for 4 hours. Cells were lysed in standard lysis buffer (without detergent) and the sample was clarified prior to analysis. The accumulation of K48-linked ubiquitin was assayed by SDS-PAGE and by western blot. An intervening lane has been removed for clarity. B Lysates and pellet in A were sonicated in SDS at 4° C., centrifuged then analyzed by SDS-PAGE and by western blot. An intervening lane has been removed for clarity. C. Quantitation of blots in A. D. Quantitation of blots in B.
FIG. 39 depicts data showing the effects of diphenyl carbonates in whole cells. A. Cos-1 cells expressing GFP-Ub(G76V) were treated with the stated diphenyl carbonate (100 μM), bortezomib (B, 20 μM) or DMSO (D) for 8 h. GFP levels were quantified by flow cytometry. B. Cells from A were assessed for viability using propidium iodide dye exclusion assay. C. […] After this time GFP levels were quantified by flow cytometry. D. Cells from C were assessed for viability using propidium iodide dye exclusion. […] G. Cos-1 cells were treated with C15 for 2 hours then analyzed for K48-linked ubiquitin by western blot. […] I. Quantitation of blots in […] (N=3).
as §1

Structures are written as SMILES. “Also recorded” adds a separate entry of the source.

For `NCc1ccc(OC(=O)Oc2ccc3ccccc3c2)cc1` [Compound C17], the “HA-Ub-VS labeling without preincubation” value in assay [1] (C17 25 μM immediately followed by HA-Ub-VS 1.5 μM) was “not sufficient to inhibit the labeling of any of the DUBs”. Moreover, the “HA-Ub-VS labeling after preincubation and dilution” value in assay [1] (C17 250 μM preincubated, diluted 10-fold) was “labeling was reduced”.

On to `O=C1/C(=C/c2ccc([N+](=O)[O-])cc2)CS(=O)(=O)C/C1=C\c1ccc([N+](=O)[O-])cc1` [Compound G5, reference compound], for which the inhibition of desumoylation result in assay [2] is given as “Neither G5 nor C4 inhibited desumoylation”.

As for `NCc1ccc(OC(=O)Oc2ccc(Br)cc2)cc1` [Compound C15, 4-(aminomethyl)phenyl(4-bromophenyl)carbonate], the SMAD4 monoubiquitination result in assay [3] is recorded as “increased SMAD4 monoubiquitination”. In addition, the “increase in total K48-linked and K63-linked HMW-Ub” value in assay [4] is given as 3-5 fold. Further, in assay [4] (dosing every 2 h for 4 hours), the “K48-linked HMW ubiquitin, soluble versus whole cell fraction” value is recorded as “causes the accumulation of soluble HMW-Ub in Cos-1 cells; also recorded: only detectable in the soluble fraction”.
